Measured values taken from patent publication US8912216B2, “Hetaryl-[1,8]naphthyridine derivatives” (Merck Patent GmbH, priority 2010, dated 2014).
pIC50: −log10 of the molar value.

Tests used:
GST-ALK5 = molecular target: T1, GST-ALK5 (Homo sapiens, UniProt P36897); experiment: In-vitro (enzyme) kinase assay, 384-well flashplate (Example 36); format: biochemical; details: GST-ALK5, GST-SMAD2 substrate, 3 mM ATP, 30° C., 45 min; read-out: TβR activity (Example 36)
T1 sequence (P36897 34-503): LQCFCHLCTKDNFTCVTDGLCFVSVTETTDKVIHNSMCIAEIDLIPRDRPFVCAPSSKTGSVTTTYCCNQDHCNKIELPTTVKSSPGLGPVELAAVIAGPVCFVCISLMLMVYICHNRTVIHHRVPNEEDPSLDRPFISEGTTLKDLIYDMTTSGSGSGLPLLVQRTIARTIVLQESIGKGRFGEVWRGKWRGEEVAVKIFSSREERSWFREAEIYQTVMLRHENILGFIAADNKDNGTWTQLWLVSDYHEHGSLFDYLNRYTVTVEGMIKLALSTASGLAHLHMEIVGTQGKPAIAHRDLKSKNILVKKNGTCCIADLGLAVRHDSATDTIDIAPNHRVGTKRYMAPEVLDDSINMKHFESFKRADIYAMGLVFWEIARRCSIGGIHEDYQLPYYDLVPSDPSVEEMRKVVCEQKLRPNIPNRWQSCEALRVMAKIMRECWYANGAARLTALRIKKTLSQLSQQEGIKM
Method: In-vitro (Enzyme) Assay for Determination of the Efficacy of Inhibitors of the Inhibition of TGF-beta-Mediated Effects
The kinase assay was carried out as 384-well flashplate assay. 31.2 nM of GST-ALK5, 439 nM of GST-SMAD2 and 3 mM of ATP (with 0.3 μCi of ^33P-ATP/well) were incubated in a total volume of 35 μl (20 mM of HEPES, 10 mM of MgCl2, 5 mM of MnCl2, 1 mM of DTT, 0.1 of BSA, pH 7.4) without or with test substance (5-10 concentrations) at 30° C. for 45 min. The reaction was stopped using 25 μl of 200 mM EDTA solution, filtered with suction at room temperature after 30 min, and the wells were washed with 3 times 100 μl of 0.9% NaCl solution. Radioactivity was measured in the TopCount. The IC50 values were calculated using RS1.

[1] = system: TGF-beta-induced phosphorylation of Smad2 and Smad3 in Mv1-Lu cells; experiment: Inhibition of Smad2/3 phosphorylation in Mv1Lu cells (Example 35A); format: cell-based, mink Mustela vison; details: Neogale vison, Mv1-Lu cells, TGF-beta 1 5 ng/ml, phospho-Smad2/3 ELISA, read-out: TβR activity (Example 35A)
Method: Inhibition of Smad2/3 Phosphorylation in Mv1Lu Cells by TGF-bta Receptor I Kinase Inhibitors
This assay was used to determine the inhibitory potency of compounds on TGF-beta-induced phosphorylation of Smad2 (Ser465/467) and Smad3 (Ser423/425). Mv1-Lu cells (lung epithelial cell line from mink Mustela vison; ATCC number: CCL-64) were seeded in DMEM (Invitrogen) supplemented with 10% fetal bovine serum (Pan Biotech) at a defined cell density in 24-well or 96-well plates (24-well plate: 1.5×10^5 cells per well; 96-well plate: 4×10^4 cells per well). Cell cultures were incubated in DMEM at 37° C. and 10% CO2. On the next day, the medium was replaced and cells were serum-starved for 16-20 hours. The following day, serial dilutions of compounds were added to the wells, pre-incubated for 1.5 hrs before recombinant TGF-beta 1 ligand (final concentration 5 ng/ml; R&D systems) was added. After one hour of ligand stimulation, lysates were prepared and analyzed using an enzyme-linked immunosorbent assay kit (PathScan Phospho-Smad2 Kit, Cell Signaling Technologies). The ELISA detects phosphorylated Smad2 as well as phosphorylated Smad3 with the phospho-specific antibody. TGF-beta stimulated cells and unstimulated cells served as positive and negative controls (100% and background control). The concentration of the vehicle DMSO was kept constant at 0.2% (v/v) in all wells. Dose-response relationships were fitted using curve fitting algorithms of the RS1 statistics software package (Brooks Automation Inc. RS/1—Statistical Tools Handbook. Release 6.2) to determine the concentration at which half-maximal inhibition (IC50) of Smad2/3 phosphorylation was achieved.

| pIC50 (GST-ALK5) | pIC50 [1] | Compound |
| --- | --- | --- |
| > 7.00 | > 7.00 | COCCN1CCC(n2cc(-c3cncc(-c4cc(-c5ccccc5F)nc5ncccc45)c3)cn2)CC1 [compound 52, 2-(2-Fluoro-phenyl)-4-(5-{1-[1-(2-methoxy-ethyl)-piperidin-4-yl]-1H-pyrazol-4-yl}-pyridin-3-yl)-[1,8]naphthyridine] |
| > 7.00 | > 7.00 | OCCN1CCC(n2cc(-c3cncc(-c4cc(-c5ccccc5F)nc5ncccc45)c3)cn2)CC1 [compound 53, 2-[4-(4-{5-[2-(2-Fluoro-phenyl)-[1,8]naphthyridin-4-yl]-pyridin-3-yl}-pyrazol-1-yl)-piperidin-1-yl]-ethanol] |
| > 7.00 | 5.00 to 6.00 | CN1CCN(c2nc(-c3cncc(-c4cc(-c5ccccc5F)nc5ncccc45)c3)no2)CC1 [compound 54, 2-(2-Fluoro-phenyl)-4-{5-[5-(4-methyl-piperazin-1-yl)-[1,2,4]oxadiazol-3-yl]-pyridin-3-yl}-[1,8]naphthyridine] |
| > 7.00 | > 7.00 | CN1CCC(n2cc(-c3cncc(-c4cc(-c5ccccc5F)nc5ncccc45)c3)nn2)CC1 [compound 55, 2-(2-Fluoro-phenyl)-4-{5-[1-(1-methyl-piperidin-4-yl)-1H-[1,2,3]triazol-4-yl]-pyridin-3-yl}-[1,8]naphthyridine] |
| > 7.00 | 6.00 to 7.00 | CN1CCN(c2nc(-c3cncc(-c4cc(-c5cc(Cl)ccc5F)nc5ncccc45)c3)no2)CC1 [compound 56, 2-(5-chloro-2-fluoro-phenyl)-4-{5-[5-(4-methyl-piperazin-1-yl)-[1,2,4]oxadiazol-3-yl]-pyridin-3-yl}-[1,8]naphthyridine] |
| > 7.00 | > 7.00 | CN1CCC(n2cc(-c3cncc(-c4cc(-c5cc(Cl)ccc5F)nc5ncccc45)c3)nn2)CC1 [compound 57, 2-(5-Chloro-2-fluoro-phenyl)-4-{5-[1-(1-methyl-piperidin-4-yl)-1H-[1,2,3]triazol-4-yl]-pyridin-3-yl}-[1,8]naphthyridine] |
| > 7.00 | > 7.00 | CN1CCC(n2cc(-c3cncc(-c4cc(-c5cc(Cl)ccc5F)nc5ncccc45)c3)cn2)C1 (stereo not drawn) [compound 58, 2-(5-Chloro-2-fluoro-phenyl)-4-{5-[1-(1-methyl-pyrrolidin-3-yl)-1H-pyrazol-4-yl]-pyridin-3-yl}-[1,8]naphthyridine] |
| > 7.00 | > 7.00 | CN1CCC(n2cc(-c3cncc(-c4cc(-c5ccccc5F)nc5ncccc45)c3)cn2)C1 (stereo not drawn) [compound 59, 2-(2-Fluoro-phenyl)-4-{5-[1-(1-methyl-pyrrolidin-3-yl)-1H-pyrazol-4-yl]-pyridin-3-yl}-[1,8]naphthyridine] |
| > 7.00 | 6.00 to 7.00 | CN1CCC(c2nc(-c3cncc(-c4cc(-c5cc(Cl)ccc5F)nc5ncccc45)c3)no2)CC1 [compound 61, 2-(5-Chloro-2-fluoro-phenyl)-4-{5-[5-(1-methyl-piperidin-4-yl)-[1,2,4]oxadiazol-3-yl]-pyridin-3-yl}-[1,8]naphthyridine] |
| > 7.00 | > 7.00 | CN1CCC(n2cc(-c3cncc(-c4cc(-c5cc(F)ccc5F)nc5ncccc45)n3)cn2)CC1 [compound 62, 2-(2,5-Difluoro-phenyl)-4-{6-[1-(1-methyl-piperidin-4-yl)-1H-pyrazol-4-yl]-pyrazin-2-yl}-[1,8]naphthyridine] |
| > 7.00 | 6.00 to 7.00 | CN1CCC(n2cc(-c3cncc(-c4cc(-c5ccccc5)nc5ncccc45)c3)cn2)CC1 [compound 63, 4-{5-[1-(1-Methyl-piperidin-4-yl)-1H-pyrazol-4-yl]-pyridin-3-yl}-2-phenyl-[1,8]naphthyridine] |
| > 7.00 | > 7.00 | CN1CC[C@@H](n2cc(-c3cncc(-c4cc(-c5ccccc5F)nc5ncccc45)c3)cn2)C1 [compound 64, 2-(2-Fluoro-phenyl)-4-{5-[1-((R)-1-methyl-pyrrolidin-3-yl)-1H-pyrazol-4-yl]-pyridin-3-yl}-[1,8]naphthyridine] |
| > 7.00 | > 7.00 | CN1CC[C@@H](n2cc(-c3cncc(-c4cc(-c5cc(Cl)ccc5F)nc5ncccc45)c3)cn2)C1 [compound 65, 2-(5-Chloro-2-fluoro-phenyl)-4-{5-[1-((R)-1-methyl-pyrrolidin-3-yl)-1H-pyrazol-4-yl]-pyridin-3-yl}-[1,8]naphthyridine] |
| > 7.00 | > 7.00 | CN1CC[C@H](n2cc(-c3cncc(-c4cc(-c5cc(Cl)ccc5F)nc5ncccc45)c3)cn2)C1 [compound 68, 2-(5-Chloro-2-fluoro-phenyl)-4-{5-[1-((S)-1-methyl-pyrrolidin-3-yl)-1H-pyrazol-4-yl]-pyridin-3-yl}-[1,8]naphthyridine] |
| > 7.00 | > 7.00 | CN1CC[C@H](n2cc(-c3cncc(-c4cc(-c5ccccc5F)nc5ncccc45)c3)cn2)C1 [compound 69, 2-(2-Fluoro-phenyl)-4-{5-[1-((S)-1-methyl-pyrrolidin-3-yl)-1H-pyrazol-4-yl]-pyridin-3-yl}-[1,8]naphthyridine] |
| > 7.00 | 5.00 to 6.00 | Fc1ccccc1-c1cc(-c2cncc(-c3nccc(N4CCNCC4)n3)c2)c2cccnc2n1 [compound 71, 2-(2-fluoro-phenyl)-4-[5-(4-piperazin-1-yl-pyrimidin-2-yl)-pyridin-3-yl]-[1,8]naphthyridine] |
| > 7.00 | 6.00 to 7.00 | Nc1ncc(-c2cc(-c3ccccc3F)nc3ncccc23)c2ccncc12 [compound 72, 4-[2-(2-fluoro-phenyl)-[1,8]naphthyridin-4-yl]-[2,7]naphthyridin-1-ylamine] |
| > 7.00 | > 7.00 | Nc1ncc(-c2cc(-c3cc(F)ccc3F)nc3ncccc23)c2ccncc12 [compound 73, 4-[2-(2,5-Difluoro-phenyl)-[1,8]naphthyridin-4-yl]-[2,7]naphthyridin-1-ylamine] |
| 6.00 to 7.00 | 5.00 to 6.00 | CC(=O)Nc1ncc(-c2cc(-c3ccccc3F)nc3ncccc23)c2ccncc12 [compound 74, N-{4-[2-(2-fluoro-phenyl)-[1,8]naphthyridin-4-yl]-[2,7]naphthyridin-1-yl}-acetamide] |
| 6.00 to 7.00 | 5.00 to 6.00 | Fc1ccccc1-c1cc(-c2cncc(-c3cnn(CCn4cccn4)c3)c2)c2cccnc2n1 [compound 77, 2-(2-Fluoro-phenyl)-4-{5-[1-(2-pyrazol-1-yl-ethyl)-1H-pyrazol-4-yl]-pyridin-3-yl}-[1,8]naphthyridine] |
| > 7.00 | 6.00 to 7.00 | NS(=O)(=O)c1ccc(-c2cncc(-c3cc(-c4ccccc4F)nc4ncccc34)c2)cc1 [compound 78, 4-{5-[2-(2-Fluoro-phenyl)-[1,8]naphthyridin-4-yl]-pyridin-3-yl}-benzenesulfonamide] |
| 6.00 to 7.00 | 5.00 to 6.00 | Fc1ccccc1-c1cc(-c2cncc(-n3cccn3)c2)c2cccnc2n1 [compound 79, 2-(2-Fluoro-phenyl)-4-(5-pyrazol-1-yl-pyridin-3-yl)-[1,8]naphthyridine] |
| 6.00 to 7.00 | 6.00 to 7.00 | Fc1ccccc1-c1cc(-c2cncc(-c3cnc4[nH]ncc4c3)c2)c2cccnc2n1 [compound 80, 2-(2-Fluoro-phenyl)-4-[5-(1H-pyrazolo[3,4-b]pyridin-5-yl)-pyridin-3-yl]-[1,8]naphthyridine] |
| > 7.00 | 6.00 to 7.00 | Fc1ccccc1-c1cc(-c2cncc(-c3ccc(N4CCNCC4)nc3)n2)c2cccnc2n1 [compound 81, 2-(2-Fluoro-phenyl)-4-[6-(6-piperazin-1-yl-pyridin-3-yl)-pyrazin-2-yl]-[1,8]naphthyridine] |
